Structures can show the parent of a compound that is named as a salt.
Assay: In vivo absorption of elcatonin by rats (nasal administration, serum level by RIA)
Design: species or system Wistar rats
Conditions: diltiazem hydrochloride per se, without absorption promotor
Procedure: In vivo absorption of elcatonin by rats :
Wistar rats, male (Japan SLC, body weight 200 - 250 g), fasting overnight, 4 rats in a group, were anesthetized by pentobarbital (Nembutal inj. Dainippon Pharm. Co., Japan).
Polyethylene tube was inserted into the trachea by incised in the corvex. Tube was inserted into postnasal space after esophageal incision. Administration was conducted by pouring drug solution 25 µl prepared in use using micropipette into the right naris. Blood sample 200 µl was collected from femoral vein time dependently before and after administration of drug. Blood sample was centrifuged (15,000 rpm/10 min./5°C) and stored at -30 °C before analysis.
Elcatonin 20 units/ml (in physiological saline) 0.25 ml was subcutaneously administered for comparison with absorption rate (comparison 1).
Blood level was assayed by RIA.
Absorption rate is calculated by using area under the curve (AUC) in the comparison 1 from the following equation. Absorption rate (%) =(AUC (I.N.))/(AUC (S.C.))×(dose (S.C.))/(dose (I.N.))×100 [formula] wherein I. N. : nasal administraion and S.C. : subcutaneous administration. As clearly shown in Fig. 2, absorption of elcatonin was enhanced in above 2 fold through nasal mucosa by administering with absorption promotor sodium glycocholate and calciuim channel blocker as compared with sodium glycocholic acid per se.

COc1ccc([C@@H]2Sc3ccccc3N(CCN(C)C)C(=O)[C@@H]2OC(C)=O)cc1 [diltiazem hydrochloride, Diltiazem hydrochloride]
absorption promoting action: no absorption promoting action

— patent EP0845265A1, “MUCOSAL P[…] PHYSIOLOGICALLY ACTIVE PEPTIDE” (Asahi Kasei Kogyo Kabushiki Kaisha, priority 1995, dated 1997)
